Results from the OligoGym collection.
These antisense oligonucleotides have a phosphorothioate backbone; sugars and methylation of C are not fully specified.

Details: ASO
Also: test concentration or dose not given here.

Row | Sequence | remaining target (mRNA or protein) (fraction of control)
1 | AAAGAAGGGATAAGCACT | 0.93
2 | AAAGCCATAGCCAGTTGC | ≥ 1
3 | AAAGCCGTGGTGAACTGACT | 0.84
4 | AAATAGGTAGCCAGGTGG | 0.99
5 | AAATGGCCGTTTTGCTCC | ≥ 1
6 | AACGTGGTCACTTTATAG | 0.73
7 | AACTGAAATAACAACTTA | 0.94
8 | AAGACAATGTGGAATCGG | ≥ 1
9 | AAGGTGCTCTTCCCGCTC | 0.29
10 | AAGGTTAAGATGCAGCAT | 0.55
11 | AAGTCCAAGACAGAATCTGT | 0.46
12 | AATCTTTAATTTCAGCCC | ≥ 1
13 | AATTCTGCCAGGTTGCTG | ≥ 1
14 | ACAGATCCAGTGGCTTGT | ≥ 1
15 | ACAGTGTTTTCCGCGGT | 0.53
16 | ACATTGAGGGAGTCGTTG | ≥ 1
17 | ACCACAGAACTGAAGGTT | ≥ 1
18 | ACCAGCCCCGAGCGTTTG | 0.74
19 | ACGTAGCCCTCCTCGGTG | ≥ 1
20 | ACTGCCTTCTCTGCCCACTT | 0.41
21 | AGAAAAGGAAATCCCAAA | ≥ 1
22 | AGAGGCAGAGAAGAGAGC | 0.93
23 | AGCCAAATGGGAACTCACAG | 0.74
24 | AGCGCCACACGCGACAGTAA | 0.56

Row | Sequence | remaining target (mRNA or protein) (fraction of control)
25 | AGCTCCCTTCTTACTCCC | 0.69
26 | AGCTCGCGCGAACCCCTA | ≥ 1
27 | AGGAGGCAGTACTGGAGTCT | 0.7
28 | AGGCTGCTGGAAAGAGTCAG | 0.53
29 | AGGGAATAAATACAAAAG | ≥ 1
30 | AGGGAGGCTGCCTTTTCC | 0.63
31 | AGGTAGTACACGGCTGAA | 0.28
32 | AGGTGACACGCCCGGAGA | ≥ 1
33 | AGTAGGTTTTGGTGGTTT | ≥ 1
34 | AGTGCATAAGAGGCCACAGC | 0.56
35 | ATCAGACTGGAGAGGAGC | 0.73
36 | ATCCCCTGATTTCTTCAC | 0.53
37 | ATCCGCAGGTTGGTTTTC | ≥ 1
38 | ATCCTTTGTATTTCTTTC | 0.85
39 | ATCGTGCGCCCTTCTTGC | ≥ 1
40 | ATCTTCTTCTCTTTCCTT | ≥ 1
41 | ATTCAGCATTTTGTAAGG | 0.99
42 | ATTCTCCCAAAGCGTCCC | 0.81
43 | ATTGGTCTCTCGTCTTTC | ≥ 1
44 | ATTTCACTGTAAACGGCT | 0.81
45 | ATTTCCTGGGATGTGCGG | 0.48
46 | ATTTCTCTCGTCCGCAAA | 0.34
47 | CAAAACCTAAATCCCTGG | ≥ 1
48 | CAAAGCGCTTAACTACAT | ≥ 1

Row | Sequence | remaining target (mRNA or protein) (fraction of control)
49 | CACCCTGGCATCCCAAAT | 0.13
50 | CACCGATGCAGAGGTCGC | 0.87
51 | CACCTGCAGCCGCCCGTCCA | 0.55
52 | CACTCTCGGGCAGCCAGC | 0.91
53 | CAGCACCCCAACCCTTAACA | 0.47
54 | CAGCGAGTACGTGACGGT | 0.93
55 | CAGGTAGATGAGGGCGAT | 0.74
56 | CATAAGAGGCCACAGCAGGC | 0.41
57 | CCAAAGAGCTGCTGGGAA | ≥ 1
58 | CCAACAAAACAGTCCAAA | 0.94
59 | CCACCACTACAGAGCAGG | ≥ 1
60 | CCACCGCCGCCGCCGCTG | 0.62
61 | CCACTAGAGTGCGCCAGA | ≥ 1
62 | CCACTCCCACCTCCCACC | ≥ 1
63 | CCAGGCTAAACCAGGCTG | 0.43
64 | CCATCTATGAGCACACTTCG | 0.33
65 | CCATGGTGCGGTGGCCTC | 0.94
66 | CCCAGGCGGAGGTCGGCG | ≥ 1
67 | CCCCACGCTGCCCTCGGA | 0.8
68 | CCCCTCCACAAAAGTGCC | 0.78
69 | CCCGCACGTCCTTGAAGA | 0.27
70 | CCCGGGCAGCTGAGAGCCCT | 0.72
71 | CCCTAGTCCACAGGTTCC | ≥ 1
72 | CCGCCAGAAAGACCCCAC | ≥ 1

Row | Sequence | remaining target (mRNA or protein) (fraction of control)
73 | CCGCTCTTGGGTCTGGCA | 0.29
74 | CCGTGGATGATCCGCATC | ≥ 1
75 | CCTAGCAGTCTCTTCACTGC | 0.74
76 | CCTCCACAGCCACTGCAT | 0.97
77 | CCTCCGCCCTCTCTTGCC | 0.8
78 | CCTGTTTACTGCTCTCCC | 0.8
79 | CCTTCAAAAGTTGTGCGG | ≥ 1
80 | CCTTCAGCAAAACAAAAC | 0.76
81 | CCTTGAAGACCTTGCGGA | 0.14
82 | CGCACAGCCCTTCACGGCAA | 0.32
83 | CGCATGGACACGAAGATG | ≥ 1
84 | CGCCCGCCGGTGCCGCCT | 0.47
85 | CGCCCGGCGGCTCTTTCT | ≥ 1
86 | CGCTCCGAAAAGAGACAG | 0.87
87 | CGGCTGAATCGAGCAGGT | 0.93
88 | CGTCGGGCTCCTTGCTGA | ≥ 1
89 | CGTGTTGATAGTTGCAGTTC | ≥ 1
90 | CTACAGGTTGGCCACTCTGG | 0.33
91 | CTATGGAAATGCAGCTTAAG | 0.87
92 | CTCATAGCAGGCCCGGAT | 0.44
93 | CTCATCCGGATAGTACACAT | 0.64
94 | CTCCAGGATGTCGGTTTT | 0.77
95 | CTCCGGCGCGCACGGGAACC | 0.55
96 | CTCGATCGCTCCTCGTGC | ≥ 1

Row | Sequence | remaining target (mRNA or protein) (fraction of control)
97 | CTCGTAACAAACTGGTCGAA | 0.83
98 | CTGAAAGTGACAGTGTTT | 0.79
99 | CTGCCTCTCTCTCCTCCG | ≥ 1
100 | CTGCTGTATCATTTTCTT | ≥ 1
101 | CTGCTTCTTCTGCTCCAA | 0.57
102 | CTTAAGACATGACTGTTAAG | 0.89
103 | CTTCTTGCTGCCCTCGGG | ≥ 1
104 | CTTTACTTCGCCGTCCAC | 0.59
105 | CTTTCAAAGGAGGGAAAC | ≥ 1
106 | CTTTGTTTCGGTTGCTGC | 0.64
107 | GACGTGCCTTTCTGCTAC | 0.72
108 | GACTTCCTTGCCTGAAAC | ≥ 1
109 | GAGAGATGCCCACCCACC | ≥ 1
110 | GAGGCGCTGCGGAACTTGGC | 0.5
111 | GAGTTGGTAGCCTCCGTT | ≥ 1
112 | GATCTTGCAGACGGTAGCTG | 0.3
113 | GATGAACCTCTTGGCTGC | ≥ 1
114 | GATGACGGATGTGCTTTT | 0.74
115 | GATGCGCTCCAGGTGGGA | 0.58
116 | GATGGGGGTGGTGGAGTGCA | 0.75
117 | GCACAGCCTGTCTTCAAA | ≥ 1
118 | GCAGAGCCGGCTGAAGTG | 0.96
119 | GCATCTGCTTGATGAAGG | ≥ 1
120 | GCCCGCACGGAGCCCTGC | 0.81

Row | Sequence | remaining target (mRNA or protein) (fraction of control)
121 | GCCCTTTGCTTTCCAGAG | ≥ 1
122 | GCGCGTCCGGTGCTCCCA | 0.75
123 | GCTCCAGCAGCAGCAGCC | 0.94
124 | GCTCCCATCCTCGTCGCC | ≥ 1
125 | GCTGTGTCTCTGGGCATC | ≥ 1
126 | GCTTCCTGTCCATCACTG | 0.71
127 | GCTTGAAGAAATGTTTTA | ≥ 1
128 | GCTTGAGTGCTGGGAACA | ≥ 1
129 | GGAAACTGAGTCAAGCAA | 0.62
130 | GGAGTGCATAAGAGGCCACA | 0.56
131 | GGATCCTGTTGATCTCCT | ≥ 1
132 | GGCAAGGCTTGAGTGCTG | 0.42
133 | GGCGAAGCTGATGCGGAC | ≥ 1
134 | GGCGGCCTTCTCATCCTC | 0.96
135 | GGCTCAGAAGGACTTCCTGG | 0.65
136 | GGCTGCGGAGCACGTCCT | 0.54
137 | GGCTGCTGAGAATCTGAA | 0.78
138 | GGGAGTTGACGAAGATGG | 0.96
139 | GGGCCCAAAAGCAGCAGC | 0.89
140 | GGGGTGGTGGAGTGCATAAG | 0.9
